These results are taken from patent publication US20140050778A1, “NUCLEIC ACID BINDING COMPOUNDS, METHODS OF MAKING, AND USE THEREOF” (UNIVERSITY OF ROCHESTER, priority 2010, published 2014).

Where two headings read alike, the source gives them in different places.

Holding throughout (assay): SPR binding to immobilized biotinylated RNA
The test system of assay [1] is (CUG)10 RNA (SEQ ID NO: 3). The protocol:
(§1) SPR binding measurements were performed on a Biacore-X instrument (Biacore, Inc., Uppsala, Sweden) with two flow channels (FC1 and FC2). 5′-Biotinylated-RNA sequences, with a C6 linker separating the biotin label from the RNA (Integrated DNA Technologies Inc.) were immobilized on streptavidin (Rockland Immunochemicals) functionalized carboxylmethyl dextran coated sensor chips (CM5, G.E. Healthcare) using EDC/NHS (Advanced ChemTech) coupling chemistry. Filtered (0.2μ), degassed and autoclaved HBS-N buffer (0.01M Hepes, pH=7.4, 0.15 M NaCl) was employed as sample and as running buffer for all SPR experiments. A typical protocol for an experiment is as follows: A CM5 sensor chip was allowed to equilibrate to room temperature and then docked into the instrument. Following priming with running buffer, FC1 and FC2 were conditioned by manual injection of 20 μL aqueous NaOH (50 mM) at a flow rate of 30 μL/min. This was repeated 3 times followed by a wash command. Next, the carboxyl groups on the sensor chip surface in both flow cells were activated separately by injecting 60 μL of freshly prepared 1:1 mixture of EDC (0.4 M) and NHS (0.1 M) at a 5 μL/min flow rate followed by a wash. […] After washing, the surface was deactivated with 60 μL injection of ethanolamine (1M, pH=8.5) at 5 μL/min. The flow cells were primed, and the streptavidin surface in FC1 alone was blocked with 30 μL of biotin (20 μM in HBS-N) at 5 μL/min. The RNA (200 nM in running buffer, HBS-N) to be immobilized was unfolded by heating above its predicted melting temperature in a heated block for 2 min and then allowed to refold by cooling gradually to room temperature. The RNA was then immobilized in FC2 alone to response units ranging from 200-1000 RU using a 5 μL/min flow rate. Representative sensorgrams for the immobilization procedure is shown in FIGS. 2A-B. Two 20 μL aliquots of NaCl (0.5 M) were injected at a 30 μL/min flow rate to remove non-specifically bound RNA. The level of RNA immobilized was noted when the baseline was stable, usually after repeated buffer injection followed by a “prime” command. Binding measurements were performed by flowing various concentrations of the compounds to be analyzed over the immobilized RNA and recording the reference-subtracted (FC2−FC1) sensorgrams. For kinetic analysis, at least five sensorgrams corresponding to different concentrations of compound (usually ranging from 0.05-1 μM in HBS-N) were obtained using flow rates of either 60 μL/min or 30 μL/min. The experimental sensorgrams were globally fitted to a 1:1 binding equation (Biaevaluation software) to obtain association rates (ka) and dissociation rates ([…]) as well as equilibrium binding constants (KD). To measure the binding stoichiometry (n), the relations in equations (1-3) below were used: […]
(§2) where RUmax is the maximum resonance response unit at saturation, RURNA is the amount RU of RNA immobilized, n is the stoichiometry, MWcompound and MWRNA are molecular weights of compound and RNA respectively, and RUeq represents the resonance response at steady-state (equilibrium). The response units at equilibrium were subjected to Scatchard binding plots of (r/Cfree vs. r).
This technique allows the association and dissociation rates (ka and kd), equilibrium binding constants (KD), and the binding stoichiometry (n) to be measured in a label-free format (Liu and Wilson, “Quantitative Analysis of Small Molecule-nucleic Acid Interactions with a Biosensor Surface and Surface Plasmon Resonance Detection,” Methods Mol. Biol. 613:1-23 (2010), which is hereby incorporated by reference in its entirety).

For assay [2], the target named is HIV-1 FSS RNA (SEQ ID NO: 7). Conditions: SPR, read-out: apparent KD. The protocol: as §1
where RUmax is the maximum resonance response unit at saturation, RURNA is the amount RU of RNA immobilized, n is the stoichiometry, MWcompound and MWRNA are molecular weights of compound and RNA respectively, and RUeq represents the resonance response at steady-state (equilibrium). The response units at equilibrium were subjected to Scatchard binding plots of (r/Cfree vs. r). […]
SPR and fluorescence titration experiments, performed using the protocol described in Examples 3 and 4 above, except using as the target a highly conserved RNA sequence responsible for regulating the production of the Gag-Pol polyprotein via a −1 ribosomal frameshift, which occurs along a “slippery sequence” in gag-pol mRNA (SEQ ID NO: 7). This “frameshift stimulatory sequence” (or “HIV-1 FSS”) consists of an upper stemloop and a lower stem, separated by a purine bulge in the most common types of HIV (FIG. 19). For the fluorescent titration experiments, the upper stemloop of SEQ ID NO: 7 was employed. Cell uptake and toxicity studies were carried out using human fibroblasts according to Example 5 above.
In general terms: Surface plasmon resonance follows binding to a sensor surface in real time, without labels.

Assay [3] has as its system (CCUG)10 RNA (SEQ ID NO: 4). Conditions: for Residence time (t1/2) for compound binding to RNA / Off-rates (koff) / On-rates (kon): (CCUG)10. The method, then: as §1, §2
(§3) The binding characteristics of compounds 3-11 were evaluated against pathogenic CUG^exp RNA and other RNA sequences by SPR. This technique allows the association and dissociation rates (ka and kd), equilibrium binding constants (KD), and the binding stoichiometry (n) to be measured in a label-free format (Liu and Wilson, “Quantitative Analysis of Small Molecule-nucleic Acid Interactions with a Biosensor Surface and Surface Plasmon Resonance Detection,” Methods Mol. Biol. 613:1-23 (2010), which is hereby incorporated by reference in its entirety). […]

Assay [4] has as its system CUG-CAG duplex ("Duplex") (SEQ ID NO: 6). Conditions: Duplex. The protocol:
as §1, §2, §3

The test system of assay [5] is (CAG)10 RNA (SEQ ID NO: 5). The method, then: as §1, §2, §3
Where [6] appears, read: Table 7, SPR, (CUG)10, read-out: KD.

`CCc1nc2cc3ccccc3cc2cc1C(=O)N1CCC[C@H]1C(=O)N[C@@H](C/C=C/C[C@H](NC(=O)[C@@H]1CCCN1C(=O)c1cc2cc3ccccc3cc2nc1CC)C(=O)N(C)[C@@H](CCCCN)C(=O)NCCCN)C(=O)N(C)[C@@H](CCCCN)C(=O)NCCCN` [20 (E)]: in assay [1] (Table 7, SPR, (CUG)10), the ka entry is recorded as “ka = 1.8 ± 0.9E+4/M * s” and the kd entry is “kd = 1.4 ± 0.6E−3/s”. The Kd in assay [1] (setting [6]) stood at 83 nM.

Take `CCc1nc2cc3ccccc3cc2cc1C(=O)N[C@@H](C/C=C\C[C@H](NC(=O)c1cc2cc3ccccc3cc2nc1CC)C(=O)N1CCC[C@H]1C(=O)N[C@@H](Cc1ccccc1)C(=O)NCCCN)C(=O)N1CCC[C@H]1C(=O)N[C@@H](Cc1ccccc1)C(=O)NCCCN` [Compound 19]: in assay [2], the Kd was determined as 102 ± 0.021 nM.

For the compound `CCc1nc2cc3ccccc3cc2cc1C(=O)N1CCC[C@H]1C(=O)N(C)[C@@H](C/C=C\C[C@@H](C(=O)N[C@@H](CCCCN)C(=O)NCCCN)N(C)C(=O)[C@@H]1CCCN1C(=O)c1cc2cc3ccccc3cc2nc1CC)C(=O)N[C@@H](CCCCN)C(=O)NCCCN` [21 (Z)], in assay [1] (Table 7, SPR, (CUG)10), the ka result is “ka = 1.6 ± 0.3E+4/M * s” and the kd result is given as “kd = 1.6 ± 0.1E−3/s”. Also, in assay [1] (setting [6]), the Kd worked out at 102 nM.

For the compound `CCc1nc2cc3ccccc3cc2cc1C(=O)N[C@@H](CCCCN)C(=O)N[C@@H](C/C=C\C[C@H](NC(=O)[C@H](CCCCN)NC(=O)c1cc2cc3ccccc3cc2nc1CC)C(=O)N1CCC[C@H]1C(=O)NCCCN)C(=O)N1CCC[C@H]1C(=O)NCCCN` [Compound 8], the “Residence time (t1/2) for compound binding to RNA” value came out at 2.5497 min in assay [3], 4.262 min in assay [4], 1.9477 min in assay [5] and 3.8118 min in assay [1] ((CUG)10). Further, the “Off-rates (koff)” value in assay [3] (SPR) was 0.00453 s⁻¹; in assay [4] (SPR), 0.00271 s⁻¹; in assay [5] (SPR), 0.00593 s⁻¹; in assay [1] (SPR, (CUG)10), 0.00303 s⁻¹. Besides, the “On-rates (kon)” value in assay [3] (SPR) came out at 15400 M⁻¹ s⁻¹; in assay [4] (SPR), 29000 M⁻¹ s⁻¹; in assay [5] (SPR) it was 12600 M⁻¹ s⁻¹; in assay [1] (SPR, (CUG)10) it was 24600 M⁻¹ s⁻¹. In addition, the “apparent KD” value in assay [1] (SPR, (CUG)10) was “reduced affinity”. For the same compound, in assay [1] (SPR, CUG repeats versus other RNAs), the sequence selectivity result is given as “no selectivity for CUG or CCUG repeats relative to duplex CUG-CAG or HIV-1 FSS RNAs”.

In the case of Neomycin [reference compound], the “Residence time (t1/2) for compound binding to RNA” value in assay [3] is 0.0592 min; in assay [1] ((CUG)10), 0.2283 min. Further, the “Off-rates (koff)” value worked out at 0.195 s⁻¹ in assay [3] (SPR) and 0.0507 s⁻¹ in assay [1] (SPR, (CUG)10). For the same compound, the “On-rates (kon)” value in assay [3] (SPR) is 109000 M⁻¹ s⁻¹; in assay [1] (SPR, (CUG)10), 125000 M⁻¹ s⁻¹. For the same compound, the Kd in assay [3] (SPR, (CCUG)10, running text, read-out: apparent KD) came to 1960 ± 714 nM; in assay [1] (SPR, (CUG)10, read-out: apparent KD), 409.6 ± 0.89 nM.

In the case of `CCc1nc2cc3ccccc3cc2cc1C(=O)N1CCC[C@H]1C(=O)N(C)[C@@H](C/C=C\C[C@@H](C(=O)N(C)[C@@H](CCCCN)C(=O)NCCCN)N(C)C(=O)[C@@H]1CCCN1C(=O)c1cc2cc3ccccc3cc2nc1CC)C(=O)N(C)[C@@H](CCCCN)C(=O)NCCCN` [22 (Z)], in assay [1] (Table 7, SPR, (CUG)10), the ka result is reported as “ka = 9.2 ± 0.4E+3/M * s” and the kd result is on record as “kd = 3 ± 2E−3/s”. In assay [1] (setting [6]), the Kd is 378 nM.
